Measured values published in patent EP0533925A1, “OPTICAL ISOMER OF R-FORM OF DIPHENYL ETHER DERIVATIVE AND HERBICIDE CONTAINING THE SAME AS ACTIVE INGREDIENT” (TEIJIN LIMITED, priority 1990, dated 1991).
Where a name gives a salt, the structure may show the parent alone.

Key:
Format in all cases: in vivo
Set-up in all cases: key: 0 means the state where the plants are as sound as before the application of the active compound; 1, 2, 3 and 4 mean varying degrees of the enfeebled state of the plants between 0 and 5; 1, 2, 3 and 4 mean varying degrees of the enfeebled state of the plants between 0 and 5; 1, 2, 3 and 4 mean varying degrees of the enfeebled state of the plants between 0 and 5; 1, 2, 3 and 4 mean varying degrees of the enfeebled state of the plants between 0 and 5; 5 is the state where the plants are withered or killed by application of the active compound
Astragalus sinicus = assay: Herbicidal activity, foliar application of single compounds (Test Examples 1 to 5); conditions: 3 weeks after application
Method: (§1) In these examples, all parts means parts by weight, unless otherwise noted. The herbicidal activity was evaluated on a scale of 6 degrees. In other words, 0 means the state where the plants are as sound as before the application of the active compound, while 5 is the state where the plants are withered or killed by application of the active compound, and 1, 2, 3 and 4 mean varying degrees of the enfeebled state of the plants between 0 and 5.
(§2) The diphenyl ethers shown in Table 2 were added to 5000 parts of a mixture of acetone and water (1 : 1 by volume), and 2.6 parts of a nonionic surfactant (Sorpol 2680, tradename) was added to form a solution, so that the ether becomes the prescribed amount in each solution.
(§3) Seeds of plants were sown in the soil, cultivated for 2 to 3 weeks, after germination, then the plants were used for the tests.
(§4) The prepared solution was applied to these plants at the prescribed rate of application in total, then the plants were continuously cultivated for 3 weeks without applying the solution.
(§5) The alphabetical symbols in Tables 2 and 3 represent the following plants, respectively: a: Digitaria adscendens b: Setaria viridis c: Sorghum halepense d: Chenopodium album var. centrorubrum e: Amaranthus mangostanus f: Astragalus sinicus g: Abutilon theophrosti h: Solanum nigrum i: Xanthium strumarium j: Soybean; Glycine max k: Corn; Zea mays Table 2

Amaranthus mangostanus [1] = assay: as above; conditions: 3 weeks after application
Method: as §1, §2, §3, §4, §5

Abutilon theophrosti = assay: as above; conditions: 3 weeks after application
Method: as §1, §2, §3, §4, §5

[2] = system: Chenopodium album var. centrorubrum; assay: Herbicidal activity, spray of diphenyl ether with N-phosphonomethylglycine derivative (Test Examples 6 to 10); conditions: Application 0.375 Kg/ha (117) alone
Method: as §1
(§6) In each run, the diphenyl ether derivatives and the N-phosphonomethylglycine derivatives shown in Table 3 (in the indicated mixing ratios) was dissolved in 16 parts by volume of a mixture of water and acetone (1 : 1 by volume; containing 0.05 % of a nonionic surfactant, Sorpol-2680) in the indicated mixing ratio, respectively, to prepare spray solutions.
(§7) The plants tested were grown in vinyl resin pots (diameter 10 cm) filled with soil in a green house for 2 to 3 weeks after germination from seeds or tubers.
(§8) The spray solution was applied to the plants so that the total volume sprayed became 4 cc/100 cm², and the herbicidal activity was examined.
as §5

Solanum nigrum = assay: as above; conditions: Application 0.375 Kg/ha (117) alone
Method: as §1, §6, §7, §8, §5

Corn; Zea mays = assay: as above; conditions: Application 0.375 Kg/ha (117) alone
Method: as §1, §6, §7, §8, §5

Amaranthus mangostanus [3] = assay: as above; conditions: Application 0.375 Kg/ha (117) alone
Method: as §1, §6, §7, §8, §5

Setaria viridis = assay: as above; conditions: Application 0.375 Kg/ha (117) alone
Method: as §1, §6, §7, §8, §5

[4] = Rate of Application 0.016 kg/ha
[5] = Rate of Application 0.031 kg/ha

## COC(=O)C(C)Oc1cc(Oc2ccc(C(F)(F)F)cc2Cl)ccc1C#N (stereo not drawn) [Compound (1), Methyl α-[2-cyano-5-(2-chloro-4-trifluoromethylphenoxy)phenoxy]propionate]
Astragalus sinicus; [4]
  herbicidal activity, Plants f: 5
Astragalus sinicus; [5]
  herbicidal activity, Plants f: 5
Amaranthus mangostanus [1]; [4]
  herbicidal activity, Plants e: 5
Amaranthus mangostanus [1]; [5]
  herbicidal activity, Plants e: 5
Abutilon theophrosti; [4]
  herbicidal activity, Plants g: 5
Abutilon theophrosti; [5]
  herbicidal activity, Plants g: 5

## O=C(O)CNCP(=O)(O)O [Compound (117), N-phosphonomethylglycine isopropylammonium salt]
[2]; 3 days after treatment
  herbicidal activity, Plants d: 0
[2]; 7 days after treatment
  herbicidal activity, Plants d: 0
[2]; 14 days after treatment
  herbicidal activity, Plants d: 1
Solanum nigrum; 3 days after treatment
  herbicidal activity, Plants h: 0
Solanum nigrum; 7 days after treatment
  herbicidal activity, Plants h: 0
Solanum nigrum; 14 days after treatment
  herbicidal activity, Plants h: 0
Corn; Zea mays; 3 days after treatment
  herbicidal activity, Plants k: 0
Corn; Zea mays; 7 days after treatment
  herbicidal activity, Plants k: 0
Corn; Zea mays; 14 days after treatment
  herbicidal activity, Plants k: 0
Amaranthus mangostanus [3]; 3 days after treatment
  herbicidal activity, Plants e: 0
Amaranthus mangostanus [3]; 7 days after treatment
  herbicidal activity, Plants e: 0
Amaranthus mangostanus [3]; 14 days after treatment
  herbicidal activity, Plants e: 0
Setaria viridis; 3 days after treatment
  herbicidal activity, Plants b: 0
Setaria viridis; 7 days after treatment
  herbicidal activity, Plants b: 0
Setaria viridis; 14 days after treatment
  herbicidal activity, Plants b: 1
